Results published in patent publication US12653860B2, “Compositions and methods for editing beta-globin for treatment of hemaglobinopathies” (Vertex Pharmaceuticals Incorporated, priority 2019, dated 2026).

System: GFP gene encoded in the AAVS1 locus of HEK293 T cells
Test: GFP to BFP reporter assay of HDR repair (BFP fluorescence)
Format: cell-based
Details: four ssODNs
Description: The effect of DNA PK inhibition by Nu7441 correction of a DSB by the NHEJ pathway (e.g., introduce an indel at the DSB site) or HDR pathway (e.g., introduce a gene mutation encoded by a homology donor at the DSB site) was assessed using the reporter system described in Example 1. In this case gene-editing was evaluated in HEK293 T cells expressing GFP in the AAVS1 locus. To introduce a gene edit that converts GFP to BFP, cells were electroporated with ribonucleoprotein (RNP) comprised of Cas9 and gRNA1 (GFP target sequence identified by SEQ ID NO: 9; sgRNA spacer sequence identified by SEQ ID NO: 10) or gRNA2 (GFP target sequence identified by SEQ ID NO: 11; sgRNA spacer identified by SEQ ID NO: 12) that targets the GFP gene encoded in the AAVS1 locus. The cells were also transfected with ssODNs that encoded the gene correction necessary to convert GFP to BFP and homology arms complimentary to the sequence upstream and downstream of the target gene cut site. The efficiency of HDR repair was determined by measuring the level of cell BFP fluorescence. The efficiency of cutting (indel information) was monitored by TIDE analysis.
Shown in FIGS. 2A-2B is a comparison of HDR editing efficiency for cells treated with Nu7441, SCR7, or RS-1. Shown in FIG. 2A are cells were electroporated with RNP comprising Cas9 and gRNA1 (GFP target sequence shown in SEQ ID NO: 9; sgRNA spacer sequence identified by SEQ ID NO: 10). 2×10^5 cells were edited with 1 μM Cas9 and 1.5 μM gRNA1. The cells were transfected with four different ssODNs. These included ssODN 1067 (SEQ ID NO: 29) and ssODN 1069 (SEQ ID NO: 31) that are complimentary to the DNA strand containing the PAM sequence and ssODN 1068 (SEQ ID NO: 30) and ssODN 1070 (SEQ ID NO: 32) that are complimentary to the DNA strand not containing the PAM sequence. Cells were edited with 100 μM ssODN. A concentrated stock solution of each inhibitor was prepared in DMSO and diluted to a final concentration of 2.5 μM Nu7441, 1.25 μM SCR7, or 10 μM RS-1. HDR efficiency was compared relative to treatment with DMSO alone or to treatment with RNP-only.
Shown in FIG. 2B are cells were electroporated with RNP comprising Cas9 and gRNA2 (GFP target sequence shown in SEQ ID NO: 11; sgRNA spacer sequence shown in SEQ ID NO: 12). The cells were transfected with four different ssODNs. These included ssODN 1061 (SEQ ID NO: 33) and ssODN 1063 (SEQ ID NO: 35) that are complimentary to the DNA strand containing the PAM sequence and ssODN 1062 (SEQ ID NO: 34) and ssODN 1064 (SEQ ID NO: 36) that are complimentary to the DNA strand not containing the PAM sequence.

[1] = gRNA1, 2.5 μM Nu7441, 1.25 μM SCR7 or 10 μM RS-1, vs DMSO alone, FIG. 2A

Row | Compound | HDR efficiency [1] | HDR efficiency (gRNA2, 2.5 μM Nu7441)
1 | O=c1[nH]c(=S)[nH]c(N=Cc2ccccc2)c1N=Cc1ccccc1 [SCR7] | no improvement in HDR efficiency | –
2 | O=c1cc(N2CCOCC2)oc2c(-c3cccc4c3sc3ccccc34)cccc12 [Nu7441] | improved HDR efficiency | improved HDR efficiency
3 | O=C(Nc1ccc(Br)cc1)c1ccc(Br)c(S(=O)(=O)NCc2ccccc2)c1 [RS-1] | no improvement in HDR efficiency | –
